Assay results reported in patent publication US20150045313A1, “Ectoparasiticidal Methods and Formulations” (Eli Lilly and Company, priority 2009, published 2015).
Read-outs that look alike come from different tables or passages of the source.

What was measured:
House Fly = experiment: Adult House Fly Assay (AhsF); parameters: species or system Musca domestica; details: 24 h, read-out: Potency (24 h EC50 μM)
Method: Adult Stable or House Fly Assay (ASF, AhsF). This assay is conducted essentially as described in White, W. H., S. M. Bauer, X. Zhao et al., Comparison of in vitro and in vivo ectoparasiticide activity of an experimental benzimidazole-carbamate with permethrin and amitraz, J. Med. Entomol. 42, 207-211 (2005); and White, W. H., C. M. McCoy, J. A. Meyer et al., Knockdown and mortality comparisons among spinosad-, imidacloprid-, and methomyl-containing baits against susceptible Musca domestica (Diptera: Muscidae) under laboratory conditions, J. Econ. Entomol. 100, 155-163 (2007).
Test material is formulated in DMSO at 10 mM. Doubling dilutions in like solvent are made to yield 10 testing levels. Materials are diluted in either bovine serum (stable flies) or 5% glucose solution (house flies) to obtain desired exposure concentrations from 200-0.39 μM. Approximately 3 ml of diluted test material is placed into a test tube (n=3 per test level) and a dental wick is used to absorb fluid. One dental wick is placed into a small weigh boat inside of a 100 mm Petri dish. Approximately 10 mixed-sex adult flies are anesthetized using carbon dioxide and counted into each dish. Dishes are incubated at 27° C. and 50-70% relative humidity. Flies recover from anesthesia and feed on compound-soaked dental wicks. After 24 h, live/dead flies are enumerated. Nonlinear regression is used to model dose-mortality relationship and obtain relative potency (LD50) data compared to contemporaneous controls (solvent-only or permethrin).

Cat Flea = experiment: Flea Contact Assay (FCA); details: Cat Flea
Method: Flea Contact Assay (FCA)/Cat Flea: Test material is formulated in acetone at the desired exposure concentration and doubling dilutions performed to obtain a total of 10 testing levels. Approximately 0.05 ml of formulated material is dispensed into the bottom of a test tube containing a small amount of dog hair. Acetone is allowed to evaporate under a fume hood overnight. Approximately 10 mixed-sex adult cat flea are anesthetized using carbon dioxide and dispensed into each tube. Tubes are sealed using a ventilated plastic cap and incubated at 27° C. and 75-80% relative humidity. […] Nonlinear regression is used to model dose-mortality relationship and obtain relative potency (LD50) data compared to contemporaneous controls (acetone-only or fipronil).

Lone Star Tick = experiment: Larval Packet Test (LPT); details: Lone Star Tick larvae, 24 h
Method: Larval Packet Test (LPT)/Ticks: Test material is formulated in a 2:1 ratio of trichloroethylene: olive oil. Tissue biopsy bags are saturated with 1 ml of formulated material (n=3 per test level), and bags are allowed to dry under a fume hood for at least 2 hours. Approximately 50-100 larval-stage ticks are placed into each bag, and the bag is sealed using a plastic dialysis clip and incubated for 24 h at 27° C. and 95% relative humidity. Bags are then opened, and live/dead ticks are enumerated. Nonlinear regression is used to model dose-mortality relationship and obtain relative potency (LD50) data compared to contemporaneous controls (solvent-only or fipronil).

[1] = test system: Horn Fly (Haematobia irritans); experiment: Cattle Ectoparasiticide Test, pour-on or spray against horn flies; format: in vivo; details: cattle, Initial
Excerpt: Cattle Ectoparasiticide Test (CET)/Horn Fly (Haematobia irritans) and/or Adult Tick (Amblyomma americanum): Cattle are housed in environmentally controlled rooms, 1 or 2 animals per room that have screened doors and ventilation system to prevent fly escape. Following treatment application, a defined number of horn flies are released into each room (typically at or above economic threshold of 200 flies per animal). After defined periods of time, the numbers of live horn flies remaining on animals are enumerated. If a combination horn fly and tick experiment is conducted, adult lone star ticks are placed into surgical stockinette enclosures that are glued onto the backs of cattle. Cattle are restrained in a modified head gate within environmentally controlled rooms. Horn flies may be enumerated, followed by determination of the numbers of dead ticks inside of containment units. Typically there are 2 containment units per animal and at least 2 animals per treatment group.
B) Therapeutic and residual efficacy testing of spinetoram and Elector against horn flies when applied topically to cattle as a pour-on or topical spray. Spinetoram (120 g/L), Elector (25 g/L spinosad) as described previously were used. Test material was applied to animals as either a whole-body topical spray or neat pour-on. Spinetoram was diluted in water to 25 g/L prior to application as a pour-on. Both materials were diluted in water to 0.04% (400 ppm) for application as a whole-body spray in a total volume of 1 L per animal. There were a total of six animals per treatment group (n=6) plus six negative control animals. Beef and dairy cattle were used. Following treatments, horn flies were released into rooms harboring cattle. Live flies were enumerated 24 h following challenges.

Boophilus annulatus = experiment: Whole-body spray treatment of Boophilus annulatus infestations on cattle; format: in vivo; parameters: residual efficacy, mean percentage control of the IF, Week 3 / residual efficacy, mean percentage control of the IF, Week 4: concentration or dose not given beside the values; residual efficacy, mean percentage control of the IF, Week 2: tested at 0.025% (250 ppm)
Method: C) Efficacy Testing and comparison of topically applied spinetoram with spinosad for the treatment of Boophilus annulatus infestations on cattle. Technical spinetoram and technical spinosad both formulated as 25 g/L suspension concentrate formulations similar to commercial Elector. Stability assays (HPLC and LPT bioassays) were conducted to confirm potency over extended periods of time (5 weeks) at cool and shelf-temperatures. Cattle were pre-infested 21 d prior to treatment with larval-stage B. annulatus ticks resulting the presence of very high numbers of all three life-stages of this tick at the time of treatment. Test materials were diluted to 0.025% (250 ppm) and applied to cattle as whole-body topical sprays in a volume of 10 L per animal. There were a total of six animals per treatment group (n=6). Animals were housed in covered stalls under ambient conditions of temperature and humidity. Engorged, detached adult female ticks were retrieved from animals in each stall on a daily basis. Egg masses were weighed and eggs were set for hatching to assess viability. Efficacy was measured in terms of total numbers of female ticks per animal and index of fecundity (IF).
Means were tested by General Linear Model (GLM), 1-way ANOVA. Differences (P<0.05) among means were separated using Tukey's all pairwise comparison. Means within the same column followed by different letters were significant at the P<0.05 level.
Means were tested by General Linear Model (GLM), 2-way ANOVA with parasitic life stage and treatment group as main effects. NS denotes not significant.

[2] = cattle, 0.025% AI whole-body spray, mean ± SD

spinosad
EC50 (House Fly; House Fly): 12 µM
Potency (EC50 ng/cm^2) 24 h (Cat Flea): 3.084 ng/cm^2
Potency (EC50 ng/cm^2) 48 h (Cat Flea): 1.500 ng/cm^2
Potency (EC50) (Lone Star Tick): 189.6 ppm
GM percent horn fly reduction after 24 hrs, Pour-on ([1]; pour-on 2 mg/kg): 99.9%
GM percent horn fly reduction after 24 hrs, Spray ([1]; whole-body spray 0.04% AI): 100%
initial/knockdown activity against B. annulatus (Boophilus annulatus; cattle, 0.025% AI): poor
Number ♀♀ Ticks per Calf (Boophilus annulatus; [2]): 2423 ± 311 a
Total Index of Fecundity (IF) (Boophilus annulatus; [2]): 289 ± 40.1 a
Percentage Control of the IF (Boophilus annulatus; cattle, 0.025% AI whole-body spray, therapeutic efficacy): 27.6 ± 10.0 a %
Percentage control, Adult (Boophilus annulatus; parasitic life stage adult, 0.025% AI): 18.5 ± 13.0%
Percentage control, Larval (Boophilus annulatus; parasitic life stage larva, 0.025% AI): 33.1 ± 16.6%
Percentage control, Nymph (Boophilus annulatus; parasitic life stage nymph, 0.025% AI): 32.9 ± 10.8%
residual efficacy, mean percentage control of the IF, Week 1 (Boophilus annulatus; ticks infested as larvae Week 1 after treatment): 97.6 ± 2.1%
residual efficacy, mean percentage control of the IF, Week 2 (Boophilus annulatus; ticks infested as larvae Week 2 after treatment): 98.5 ± 1.2%
residual efficacy, mean percentage control of the IF, Week 3 (Boophilus annulatus; ticks infested as larvae Week 3 after treatment): 89.4 ± 6.2%
residual efficacy, mean percentage control of the IF, Week 4 (Boophilus annulatus; ticks infested as larvae Week 4 after treatment): 89.7 ± 4.8%

O=[N+]([O-])NC1=NCCN1Cc1ccc(Cl)nc1 [Imidacloprid, imidacloprid]
Potency (EC50 ng/cm^2) 24 h (Cat Flea): 11.59 ng/cm^2
Potency (EC50 ng/cm^2) 48 h (Cat Flea): 7.737 ng/cm^2

CC1(C)C(C=C(Cl)Cl)C1C(=O)OCc1cccc(Oc2ccccc2)c1 (stereo not drawn) [Permethrin, permethrin]
Potency (EC50 ng/cm^2) 24 h (Cat Flea): 63.30 ng/cm^2
Potency (EC50 ng/cm^2) 48 h (Cat Flea): 0.1580 ng/cm^2

N#Cc1nn(-c2c(Cl)cc(C(F)(F)F)cc2Cl)c(N)c1[S+]([O-])C(F)(F)F (stereo not drawn) [Fipronil, fipronil]
EC50 (House Fly; Musca domestica): 0.97 µM
Potency (EC50 ng/cm^2) 24 h (Cat Flea): 43.56 ng/cm^2
Potency (EC50 ng/cm^2) 48 h (Cat Flea): 22.18 ng/cm^2
